Experimental data: paper PMC7746945 (Neuro-Oncology, 2020)
Entries after “also recorded” stand apart in the source; their conditions may differ. Where two headings read alike, the source gives them in different places.

How the values were obtained:
MDR1 = target: T1, MDR1 (Homo sapiens, UniProt P08183); test: Directional transport of [14C]-olaparib across MDCKII-MDR1 monolayers, with or without ketoconazole; assay type: in vitro ADME
T1 construct: host or cells: MDCKII (Madin-Darby canine kidney type II) cells stably expressing human MDR1 cDNA
T1 sequence (P08183 whole entry): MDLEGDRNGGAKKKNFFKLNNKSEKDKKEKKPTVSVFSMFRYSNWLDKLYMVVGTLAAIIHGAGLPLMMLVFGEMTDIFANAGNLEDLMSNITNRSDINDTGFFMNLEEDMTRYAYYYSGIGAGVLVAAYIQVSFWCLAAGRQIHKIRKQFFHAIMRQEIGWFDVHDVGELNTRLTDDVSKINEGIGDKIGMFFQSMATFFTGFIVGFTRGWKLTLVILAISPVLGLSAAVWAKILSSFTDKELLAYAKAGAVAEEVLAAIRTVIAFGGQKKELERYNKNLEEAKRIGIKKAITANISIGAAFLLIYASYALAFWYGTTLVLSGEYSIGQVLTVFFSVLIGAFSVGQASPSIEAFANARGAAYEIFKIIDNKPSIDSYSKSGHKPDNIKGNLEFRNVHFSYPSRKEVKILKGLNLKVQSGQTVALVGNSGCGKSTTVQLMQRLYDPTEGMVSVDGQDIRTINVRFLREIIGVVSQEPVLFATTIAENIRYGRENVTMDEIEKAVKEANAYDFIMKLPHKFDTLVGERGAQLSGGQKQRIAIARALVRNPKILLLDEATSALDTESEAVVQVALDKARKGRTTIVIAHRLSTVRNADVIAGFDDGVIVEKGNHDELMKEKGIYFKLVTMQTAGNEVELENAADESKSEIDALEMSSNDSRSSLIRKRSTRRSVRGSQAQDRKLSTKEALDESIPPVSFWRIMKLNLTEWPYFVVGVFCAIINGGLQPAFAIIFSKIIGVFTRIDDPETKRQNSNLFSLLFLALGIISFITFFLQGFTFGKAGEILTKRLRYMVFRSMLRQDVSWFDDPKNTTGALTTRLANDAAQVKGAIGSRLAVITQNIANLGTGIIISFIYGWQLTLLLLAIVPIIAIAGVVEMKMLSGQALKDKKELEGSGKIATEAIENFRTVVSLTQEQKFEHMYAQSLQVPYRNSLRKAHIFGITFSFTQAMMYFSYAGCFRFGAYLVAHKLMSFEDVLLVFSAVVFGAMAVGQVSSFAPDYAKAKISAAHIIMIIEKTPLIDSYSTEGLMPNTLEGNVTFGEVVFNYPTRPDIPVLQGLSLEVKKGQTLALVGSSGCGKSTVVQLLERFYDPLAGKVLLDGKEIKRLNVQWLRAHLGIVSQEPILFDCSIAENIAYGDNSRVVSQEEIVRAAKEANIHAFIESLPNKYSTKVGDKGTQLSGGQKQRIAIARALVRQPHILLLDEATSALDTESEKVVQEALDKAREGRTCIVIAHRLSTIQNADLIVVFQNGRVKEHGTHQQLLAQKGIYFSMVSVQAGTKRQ

[1] = Whole body autoradiography after single oral [14C]-olaparib; assay type: in vivo, pigmented rats; settings: for radioactivity concentration, Blood / radioactivity concentration, Brain / radioactivity concentration, Choroid plexus / radioactivity concentration, Kidney cortex (outer) / radioactivity concentration, Large intestine mucosa / radioactivity concentration, Liver / radioactivity concentration, Meninges / radioactivity concentration, Pineal body / radioactivity concentration, Plasma / radioactivity concentration, Small intestine mucosa / radioactivity concentration, Spinal cord: rat, oral [14C]-olaparib 15 mg/kg
Method: Canine kidney epithelial cells, stably expressing human MDR1 cDNA (Madin-Darby canine kidney type II [MDCKII]–MDR1 cells) or empty vector (MDCKII control), were used to model the intact BBB and determine permeability coefficients of (^14C)-olaparib in the presence of ketoconazole (25 μM). Whole body autoradiography was performed on male pigmented rats after single oral administration of [^14C]-olaparib (15 mg/kg; 5 MBq/kg). For autoradiography studies, animal care and experiments were carried out in accordance with AstraZeneca guidelines, which comply with UK standards. […] Xenograft experiments were performed under the relevant UK Home Office Project Licence and carried out with ethical approval from the University of Glasgow under the Animal (Scientific Procedures) Act 1986 and the EU directive 2010. Mice were maintained in individually ventilated cages with environmental enrichment and following the guidelines of ARRIVE (Animal Research: Reporting of In Vivo Experiments). […] Ratiometric t-test analysis determined SER confidence intervals and P-values. Further details are available in the Supplementary Material.
Apparent permeability coefficients were calculated for apical to basolateral (Papp a‒b) and basolateral to apical transport (Papp b‒a) as described in Methods. […] (B) Single oral doses of 15 mg/kg [14C]-olaparib were administered to male pigmented rats that were subsequently culled, sectioned, and subjected to whole body autoradiography at the timepoints shown. Radioactivity was excluded from the central nervous system in all animals at all timepoints. […] Blood, tumor, and contralateral (non tumor bearing) brain were harvested and snap frozen at the time points shown. […] Note different y-axis scales.
For autoradiography studies, animal care and experiments were carried out in accordance with AstraZeneca guidelines. Male and female pigmented rats and female BALB/c nu/nu mice bearing subcutaneous HCT-116 colorectal carcinoma xenografts were treated with 15 mg/kg [^14C]-olaparib. Animals were culled by asphyxiation, carcasses frozen in hexane and solid carbon dioxide then subjected to whole body autoradiography. Radioactivity concentrations in tissue were quantified from whole-body autoradiograms using a validated image analysis system.

## O=C(c1cc(Cc2n[nH]c(=O)c3ccccc23)ccc1F)N1CCN(C(=O)C2CC2)CC1 [olaparib, 4-[3-(4-cyclopropanecarbonylpiperazine-1-carbonyl)-4-fluorobenzyl]-2H-phthalazin-1-one]
MDR1; human, MDCK-MDR1
  Papp A→B at 120 min, 3 µM: 0.53 ×10⁻⁶ cm/s
MDR1; human, MDCK-MDR1, with ketoconazole 25 µM, read-out: Papp b-a + ketoconazole (SD)
  Papp B→A at 120 min, 3 µM: 16.3 ×10⁻⁶ cm/s
MDR1; human, MDCK-MDR1, read-out: Papp b-a (SD)
  Papp B→A at 120 min, 3 µM: 42.7 ×10⁻⁶ cm/s
MDR1; olaparib 1–10 µM
  MDR1 substrate status: substrate for multidrug resistance protein 1; also recorded: substrate for MDR1
MDR1; olaparib 1–10 µM, ketoconazole 25 µM
  reduction of apparent permeability of MDCKII-MDR1 cells to olaparib by ketoconazole: 40–62%
[1]; male and female rats, single [14C]-olaparib 15 mg/kg, 5 MBq/kg, any timepoint
  radioactivity in brain or spinal cord (brain penetration): no brain penetration; also recorded: undetectable
[1]; 1 hr
  radioactivity concentration, Blood: 2.44 nmol equivalents of olaparib per gram of tissue
  radioactivity concentration, Brain: BLQ
  radioactivity concentration, Choroid plexus: 0.618 nmol equivalents of olaparib per gram of tissue
  radioactivity concentration, Kidney cortex (outer): 9.52 nmol equivalents of olaparib per gram of tissue
  radioactivity concentration, Large intestine mucosa: 12.1 nmol equivalents of olaparib per gram of tissue
  radioactivity concentration, Liver: 112 nmol equivalents of olaparib per gram of tissue
  radioactivity concentration, Meninges: 0.847 nmol equivalents of olaparib per gram of tissue
  radioactivity concentration, Pineal body: 2.13 nmol equivalents of olaparib per gram of tissue
  radioactivity concentration, Plasma: 9.69 nmol equivalents of olaparib per gram of tissue
  radioactivity concentration, Small intestine mucosa: 60.5 nmol equivalents of olaparib per gram of tissue
  radioactivity concentration, Spinal cord: BLQ
[1]; 4 hr
  radioactivity concentration, Blood: 0.729 nmol equivalents of olaparib per gram of tissue
  radioactivity concentration, Brain: BLQ
  radioactivity concentration, Choroid plexus: 0.228 nmol equivalents of olaparib per gram of tissue
  radioactivity concentration, Kidney cortex (outer): 3.16 nmol equivalents of olaparib per gram of tissue
  radioactivity concentration, Large intestine mucosa: 11.1 nmol equivalents of olaparib per gram of tissue
  radioactivity concentration, Liver: 49.3 nmol equivalents of olaparib per gram of tissue
  radioactivity concentration, Meninges: 0.500 nmol equivalents of olaparib per gram of tissue
  radioactivity concentration, Pineal body: 0.318 nmol equivalents of olaparib per gram of tissue
  radioactivity concentration, Plasma: 2.11 nmol equivalents of olaparib per gram of tissue
  radioactivity concentration, Small intestine mucosa: 19.1 nmol equivalents of olaparib per gram of tissue
  radioactivity concentration, Spinal cord: BLQ
[1]; 8 hr
  radioactivity concentration, Blood: 0.171 nmol equivalents of olaparib per gram of tissue
  radioactivity concentration, Brain: BLQ
  radioactivity concentration, Choroid plexus: BLQ
  radioactivity concentration, Kidney cortex (outer): 1.49 nmol equivalents of olaparib per gram of tissue
  radioactivity concentration, Large intestine mucosa: 39.8 nmol equivalents of olaparib per gram of tissue
  radioactivity concentration, Liver: 14.7 nmol equivalents of olaparib per gram of tissue
  radioactivity concentration, Meninges: BLQ
  radioactivity concentration, Pineal body: 0.248 nmol equivalents of olaparib per gram of tissue
  radioactivity concentration, Plasma: 0.180 nmol equivalents of olaparib per gram of tissue
  radioactivity concentration, Small intestine mucosa: 7.93 nmol equivalents of olaparib per gram of tissue
  radioactivity concentration, Spinal cord: BLQ
[1]; 24 hr
  radioactivity concentration, Blood: BLQ^3
  radioactivity concentration, Brain: BLQ
  radioactivity concentration, Choroid plexus: BLQ
  radioactivity concentration, Kidney cortex (outer): 0.248 nmol equivalents of olaparib per gram of tissue
  radioactivity concentration, Large intestine mucosa: 2.10 nmol equivalents of olaparib per gram of tissue
  radioactivity concentration, Liver: 2.23 nmol equivalents of olaparib per gram of tissue
  radioactivity concentration, Meninges: BLQ
  radioactivity concentration, Pineal body: BLQ
  radioactivity concentration, Plasma: 0.046 nmol equivalents of olaparib per gram of tissue
  radioactivity concentration, Small intestine mucosa: 1.19 nmol equivalents of olaparib per gram of tissue
  radioactivity concentration, Spinal cord: BLQ
[1]; 72 hr
  radioactivity concentration, Blood: BLQ
  radioactivity concentration, Brain: BLQ
  radioactivity concentration, Choroid plexus: BLQ
  radioactivity concentration, Kidney cortex (outer): 0.202 nmol equivalents of olaparib per gram of tissue
  radioactivity concentration, Large intestine mucosa: BLQ
  radioactivity concentration, Liver: 0.604 nmol equivalents of olaparib per gram of tissue
  radioactivity concentration, Meninges: BLQ
  radioactivity concentration, Pineal body: BLQ
  radioactivity concentration, Plasma: 0.009 nmol equivalents of olaparib per gram of tissue
  radioactivity concentration, Small intestine mucosa: BLQ
  radioactivity concentration, Spinal cord: BLQ
[1]; 168 hr
  radioactivity concentration, Blood: BLQ
  radioactivity concentration, Brain: BLQ
  radioactivity concentration, Choroid plexus: BLQ
  radioactivity concentration, Kidney cortex (outer): BLQ
  radioactivity concentration, Large intestine mucosa: BLQ
  radioactivity concentration, Liver: 0.164 nmol equivalents of olaparib per gram of tissue
  radioactivity concentration, Meninges: BLQ
  radioactivity concentration, Pineal body: BLQ
  radioactivity concentration, Small intestine mucosa: BLQ
  radioactivity concentration, Spinal cord: BLQ
